The subject of series [1] is Tyrosine-protein kinase ABL1 (Homo sapiens), P00519 [F317I]. The settings on record: Compound concentration 1000.0 nM.
For series [2], the system named is Tyrosine-protein kinase ABL1 (Homo sapiens), P00519 [T315I]. The settings on record: Compound concentration 1000.0 nM.
Series [3] concerns the target Aurora kinase A (Homo sapiens) (UniProt O14965). To be noted: Compound concentration 1000.0 nM.
The target of series [4] is Cytoplasmic tyrosine-protein kinase BMX (Homo sapiens) (UniProt P51813). To be noted: Compound concentration 1000.0 nM.
The target in series [5] is Cyclin-dependent kinase 4 (Homo sapiens) (UniProt P11802). To be noted: Compound concentration 1000.0 nM.
Series [6] has as its target Cyclin-dependent kinase-like 1 (Homo sapiens) (UniProt Q00532). The settings on record: Compound concentration 1000.0 nM.
Series [7] has as its target Serine/threonine-protein kinase MRCK gamma (Homo sapiens) (UniProt Q6DT37). To be noted: Compound concentration 1000.0 nM.
In series [8] the test system is Receptor-type tyrosine-protein kinase FLT3 (Homo sapiens), P36888 [D835Y]. The settings on record: Compound concentration 1000.0 nM.
For series [9], the target named is Tyrosine-protein kinase JAK1 (Homo sapiens) (UniProt P23458). To be noted: Compound concentration 1000.0 nM.
For series [10], the target named is Mitogen-activated protein kinase 9 (Homo sapiens) (UniProt P45984). The settings on record: Compound concentration 1000.0 nM.
For series [11], the system named is Mast/stem cell growth factor receptor Kit (Homo sapiens), P10721 [L576P]. The settings on record: Compound concentration 1000.0 nM.
In series [12] the target is Mast/stem cell growth factor receptor Kit (Homo sapiens) (UniProt P10721). To be noted: Compound concentration 1000.0 nM.
The target in series [13] is Leukocyte tyrosine kinase receptor (Homo sapiens) (UniProt P29376). The settings on record: Compound concentration 1000.0 nM.
The target in series [14] is Serine/threonine-protein kinase MAK (Homo sapiens) (UniProt P20794). The settings on record: Compound concentration 1000.0 nM.
Series [15] addresses MAP/microtubule affinity-regulating kinase 3 (Homo sapiens) (UniProt P27448). To be noted: Compound concentration 1000.0 nM.
The target in series [16] is Mitogen-activated protein kinase 11 (Homo sapiens) (UniProt Q15759). To be noted: Compound concentration 1000.0 nM.
For series [17], the target named is Mitogen-activated protein kinase 12 (Homo sapiens) (UniProt P53778). To be noted: Compound concentration 1000.0 nM.
For series [18], the target named is Serine/threonine-protein kinase pim-1 (Homo sapiens) (UniProt P11309). To be noted: Compound concentration 1000.0 nM.
Series [19] has as its target cAMP-dependent protein kinase catalytic subunit alpha (Homo sapiens) (UniProt P17612). The settings on record: Compound concentration 1000.0 nM.
Series [20] deals with Protein kinase C epsilon type (Homo sapiens) (UniProt Q02156). The settings on record: Compound concentration 1000.0 nM.
Series [21] addresses Receptor-interacting serine/threonine-protein kinase 4 (Homo sapiens) (UniProt P57078). The settings on record: Compound concentration 1000.0 nM.
Series [22] concerns the target Serine/threonine-protein kinase 33 (Homo sapiens) (UniProt Q9BYT3). To be noted: Compound concentration 1000.0 nM.
The target in series [23] is TGF-beta receptor type-2 (Homo sapiens) (UniProt P37173). The settings on record: Compound concentration 1000.0 nM.
Series [24] has as its target Calcium/calmodulin-dependent protein kinase type 1 (Homo sapiens) (UniProt Q14012). Description: CaMKI (h) Millipore kinase activity assay. To be noted: Compound concentration 1.0 uM.
The target of series [25] is Casein kinase I isoform gamma-3 (Homo sapiens) (UniProt Q9Y6M4). Description: CK1gamma3 (h) Millipore kinase activity assay. The settings on record: Compound concentration 1.0 uM.
In series [26] the target is Mast/stem cell growth factor receptor Kit (Homo sapiens) (UniProt P10721). Nature of the series: cKit (h) Millipore kinase activity assay. To be noted: Compound concentration 1.0 uM.
The target of series [27] is RAF proto-oncogene serine/threonine-protein kinase (Homo sapiens) (UniProt P04049). Nature of the series: c-RAF (h) Millipore kinase activity assay. To be noted: Compound concentration 1.0 uM.
In series [28] the target is Focal adhesion kinase 1 (Homo sapiens) (UniProt Q05397). Nature of the series: FAK (h) Millipore kinase activity assay. To be noted: Compound concentration 1.0 uM.
Series [29] concerns the target Homeodomain-interacting protein kinase 3 (Homo sapiens) (UniProt Q9H422). Description: HIPK3 (h) Millipore kinase activity assay. The settings on record: Compound concentration 1.0 uM.
Series [30] deals with Ribosomal protein S6 kinase beta-1 (Homo sapiens) (UniProt P23443). Description: p70S6K (h) Millipore kinase activity assay. To be noted: Compound concentration 1.0 uM.
Series [31] addresses Protein kinase C theta type (Homo sapiens) (UniProt Q04759). Description: PKCtheta (h) Millipore kinase activity assay. To be noted: Compound concentration 1.0 uM.
Series [32] concerns the target Serine/threonine-protein kinase N2 (Homo sapiens) (UniProt Q16513). Nature of the series: PRK2 (h) Millipore kinase activity assay. To be noted: Compound concentration 1.0 uM.
Series [33] has as its target B1 bradykinin receptor (Homo sapiens) (UniProt P46663). Nature of the series: Inhibition of Bradykinin B1 at 10 µM in the Eurofins-Panlabs radioligand binding assay (Eurofins_assay_212510). The settings on record: Compound concentration 10.0 uM.
Series [34] deals with L-type calcium channel, benzothiazepine site (Cav1.2 alpha-1C) (Homo sapiens, UniProt Q13936). Nature of the series: Inhibition of Calcium Channel L-Type, Benzothiazepine at 10 µM in the Eurofins-Panlabs radioligand binding assay (Eurofins_assay_214510). Details: ligand concentration 2 nM, non-specific ligand with concentration 10 µM Diltiazem, incubation time 3h, incubation temperature 4 °C. The settings on record: male, Wistar, rat, rat whole brain preparation, probe [3H] Diltiazem; compound concentration 10 uM; target entry is the homologue from another species.

Series [35] has as its target T1, D(4) dopamine receptor (Homo sapiens) (UniProt P21917).
T1 sequence (whole entry): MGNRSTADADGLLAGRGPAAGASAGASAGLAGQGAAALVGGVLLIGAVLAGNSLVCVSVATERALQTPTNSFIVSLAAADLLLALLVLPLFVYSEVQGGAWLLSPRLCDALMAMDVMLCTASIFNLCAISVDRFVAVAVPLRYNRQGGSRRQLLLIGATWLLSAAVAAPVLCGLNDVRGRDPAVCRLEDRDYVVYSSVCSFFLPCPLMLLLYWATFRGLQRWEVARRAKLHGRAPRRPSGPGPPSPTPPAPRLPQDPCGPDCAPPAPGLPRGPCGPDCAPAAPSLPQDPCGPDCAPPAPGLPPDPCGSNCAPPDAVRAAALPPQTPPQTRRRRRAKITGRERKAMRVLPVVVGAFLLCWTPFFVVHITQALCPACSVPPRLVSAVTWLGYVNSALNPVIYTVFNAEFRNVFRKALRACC
Description: Inhibition of Dopamine D4.2 at 10 µM in the Eurofins-Panlabs radioligand binding assay (Eurofins_assay_219900). The arrangement: ligand concentration 0.5 nM. The settings on record: Compound concentration 10.0 uM.

In series [36] the target is Melatonin receptor type 1A (Homo sapiens) (UniProt P48039). Description: Inhibition of Melatonin MT1 at 10 µM in the Eurofins-Panlabs radioligand binding assay (Eurofins_assay_251600). Details: ligand concentration 0.05 nM; call rule not given here. To be noted: Compound concentration 10.0 uM.
Series [37] concerns the target Prostaglandin E2 receptor EP4 subtype (Homo sapiens) (UniProt P35408). Nature of the series: Inhibition of Prostanoid EP4 at 10 µM in the Eurofins-Panlabs radioligand binding assay (Eurofins_assay_268420). The arrangement: ligand concentration 1 nM. To be noted: Compound concentration 10.0 uM.

In ChEMBL document CHEMBL4507263, “Data for DCP probe BAY-474” (2021) one finds residual activity and inhibition data, which are given here for two molecules.

Sequence of Mast/stem cell growth factor receptor Kit (Homo sapiens) (P10721 whole entry): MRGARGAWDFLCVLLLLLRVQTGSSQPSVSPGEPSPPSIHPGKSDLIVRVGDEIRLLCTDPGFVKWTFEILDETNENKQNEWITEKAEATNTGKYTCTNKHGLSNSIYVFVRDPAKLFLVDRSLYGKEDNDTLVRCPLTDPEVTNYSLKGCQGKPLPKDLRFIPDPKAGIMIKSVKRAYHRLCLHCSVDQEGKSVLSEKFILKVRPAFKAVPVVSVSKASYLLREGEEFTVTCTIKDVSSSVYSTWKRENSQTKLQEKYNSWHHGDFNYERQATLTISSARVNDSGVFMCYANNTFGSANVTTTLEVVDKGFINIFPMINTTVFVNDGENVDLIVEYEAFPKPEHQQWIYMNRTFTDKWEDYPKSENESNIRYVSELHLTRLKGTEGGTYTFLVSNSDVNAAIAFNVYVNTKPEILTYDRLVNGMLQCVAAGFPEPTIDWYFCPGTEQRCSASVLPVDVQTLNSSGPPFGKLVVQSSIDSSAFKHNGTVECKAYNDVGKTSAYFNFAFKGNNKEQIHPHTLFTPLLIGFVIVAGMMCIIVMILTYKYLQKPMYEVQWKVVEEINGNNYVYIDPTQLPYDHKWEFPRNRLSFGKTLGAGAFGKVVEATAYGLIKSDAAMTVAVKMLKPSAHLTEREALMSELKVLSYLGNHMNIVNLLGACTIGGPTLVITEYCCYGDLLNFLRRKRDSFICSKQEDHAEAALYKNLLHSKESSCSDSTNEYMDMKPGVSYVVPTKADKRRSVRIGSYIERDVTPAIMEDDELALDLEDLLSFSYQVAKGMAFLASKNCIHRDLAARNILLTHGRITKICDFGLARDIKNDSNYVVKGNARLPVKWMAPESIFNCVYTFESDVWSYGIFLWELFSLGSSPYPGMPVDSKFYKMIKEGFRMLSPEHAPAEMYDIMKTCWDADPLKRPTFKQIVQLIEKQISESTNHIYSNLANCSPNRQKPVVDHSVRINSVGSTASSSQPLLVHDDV
Sequence of Mitogen-activated protein kinase 11 (Homo sapiens) (Q15759 whole entry): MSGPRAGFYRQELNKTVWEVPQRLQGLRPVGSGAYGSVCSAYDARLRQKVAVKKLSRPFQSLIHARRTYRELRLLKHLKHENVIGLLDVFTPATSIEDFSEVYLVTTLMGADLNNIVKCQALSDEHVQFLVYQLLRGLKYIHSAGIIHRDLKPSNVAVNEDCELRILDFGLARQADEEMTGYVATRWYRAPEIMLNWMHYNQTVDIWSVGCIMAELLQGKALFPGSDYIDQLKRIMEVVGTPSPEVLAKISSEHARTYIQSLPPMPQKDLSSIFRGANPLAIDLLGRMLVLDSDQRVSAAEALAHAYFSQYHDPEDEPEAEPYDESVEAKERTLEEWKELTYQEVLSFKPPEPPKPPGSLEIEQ
Sequence of Mitogen-activated protein kinase 12 (Homo sapiens) (P53778 whole entry): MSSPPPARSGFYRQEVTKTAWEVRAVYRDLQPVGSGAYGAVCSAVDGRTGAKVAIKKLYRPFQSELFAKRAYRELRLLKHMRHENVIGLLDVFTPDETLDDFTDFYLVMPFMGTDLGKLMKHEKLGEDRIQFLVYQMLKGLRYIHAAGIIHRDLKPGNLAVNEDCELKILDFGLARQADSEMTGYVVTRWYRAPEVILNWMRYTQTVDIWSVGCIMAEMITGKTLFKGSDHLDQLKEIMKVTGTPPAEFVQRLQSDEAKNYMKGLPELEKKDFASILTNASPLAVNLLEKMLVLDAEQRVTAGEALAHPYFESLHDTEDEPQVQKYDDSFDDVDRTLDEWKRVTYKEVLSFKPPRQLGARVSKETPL
Sequence of Cyclin-dependent kinase 4 (Homo sapiens) (P11802 whole entry): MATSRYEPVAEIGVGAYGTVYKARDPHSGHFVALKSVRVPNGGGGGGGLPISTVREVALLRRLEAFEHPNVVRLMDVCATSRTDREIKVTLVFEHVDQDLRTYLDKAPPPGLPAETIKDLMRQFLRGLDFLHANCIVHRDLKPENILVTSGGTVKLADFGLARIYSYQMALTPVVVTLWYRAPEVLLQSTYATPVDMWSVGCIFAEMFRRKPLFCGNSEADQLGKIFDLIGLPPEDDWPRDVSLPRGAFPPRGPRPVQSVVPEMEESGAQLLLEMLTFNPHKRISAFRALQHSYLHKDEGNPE
Sequence of B1 bradykinin receptor (Homo sapiens) (P46663 whole entry): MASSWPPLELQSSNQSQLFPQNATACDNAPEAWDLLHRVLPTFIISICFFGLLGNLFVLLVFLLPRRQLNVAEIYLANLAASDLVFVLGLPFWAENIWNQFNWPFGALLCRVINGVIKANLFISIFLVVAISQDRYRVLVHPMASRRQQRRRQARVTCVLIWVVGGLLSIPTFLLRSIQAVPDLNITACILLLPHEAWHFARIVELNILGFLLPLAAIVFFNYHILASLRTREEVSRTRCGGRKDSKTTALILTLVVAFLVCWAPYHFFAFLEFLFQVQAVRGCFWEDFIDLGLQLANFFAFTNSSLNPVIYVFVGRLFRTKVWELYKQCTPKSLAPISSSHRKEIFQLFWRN
Sequence of Receptor-interacting serine/threonine-protein kinase 4 (Homo sapiens) (P57078 whole entry): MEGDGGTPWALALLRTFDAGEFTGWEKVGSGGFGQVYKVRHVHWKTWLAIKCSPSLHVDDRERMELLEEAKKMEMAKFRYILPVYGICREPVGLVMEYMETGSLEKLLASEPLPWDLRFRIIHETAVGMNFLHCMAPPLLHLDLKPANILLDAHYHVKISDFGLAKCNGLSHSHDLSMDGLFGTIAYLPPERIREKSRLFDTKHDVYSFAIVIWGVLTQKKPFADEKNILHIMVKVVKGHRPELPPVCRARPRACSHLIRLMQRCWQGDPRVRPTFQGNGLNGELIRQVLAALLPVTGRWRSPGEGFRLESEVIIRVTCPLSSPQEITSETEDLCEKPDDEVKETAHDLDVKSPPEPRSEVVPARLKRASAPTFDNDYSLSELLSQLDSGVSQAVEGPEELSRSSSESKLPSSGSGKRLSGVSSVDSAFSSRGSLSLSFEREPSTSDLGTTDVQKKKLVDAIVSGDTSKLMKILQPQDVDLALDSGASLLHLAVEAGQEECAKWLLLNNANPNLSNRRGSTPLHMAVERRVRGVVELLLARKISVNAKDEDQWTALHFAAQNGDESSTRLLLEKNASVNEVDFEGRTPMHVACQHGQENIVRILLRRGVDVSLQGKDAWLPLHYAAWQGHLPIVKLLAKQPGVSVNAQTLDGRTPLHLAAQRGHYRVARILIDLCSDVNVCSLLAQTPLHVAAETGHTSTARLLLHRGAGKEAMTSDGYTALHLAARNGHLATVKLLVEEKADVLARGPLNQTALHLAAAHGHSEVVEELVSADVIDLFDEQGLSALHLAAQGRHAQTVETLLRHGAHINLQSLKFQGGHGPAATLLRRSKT
Sequence of Protein kinase C theta type (Homo sapiens) (Q04759 whole entry, looked up): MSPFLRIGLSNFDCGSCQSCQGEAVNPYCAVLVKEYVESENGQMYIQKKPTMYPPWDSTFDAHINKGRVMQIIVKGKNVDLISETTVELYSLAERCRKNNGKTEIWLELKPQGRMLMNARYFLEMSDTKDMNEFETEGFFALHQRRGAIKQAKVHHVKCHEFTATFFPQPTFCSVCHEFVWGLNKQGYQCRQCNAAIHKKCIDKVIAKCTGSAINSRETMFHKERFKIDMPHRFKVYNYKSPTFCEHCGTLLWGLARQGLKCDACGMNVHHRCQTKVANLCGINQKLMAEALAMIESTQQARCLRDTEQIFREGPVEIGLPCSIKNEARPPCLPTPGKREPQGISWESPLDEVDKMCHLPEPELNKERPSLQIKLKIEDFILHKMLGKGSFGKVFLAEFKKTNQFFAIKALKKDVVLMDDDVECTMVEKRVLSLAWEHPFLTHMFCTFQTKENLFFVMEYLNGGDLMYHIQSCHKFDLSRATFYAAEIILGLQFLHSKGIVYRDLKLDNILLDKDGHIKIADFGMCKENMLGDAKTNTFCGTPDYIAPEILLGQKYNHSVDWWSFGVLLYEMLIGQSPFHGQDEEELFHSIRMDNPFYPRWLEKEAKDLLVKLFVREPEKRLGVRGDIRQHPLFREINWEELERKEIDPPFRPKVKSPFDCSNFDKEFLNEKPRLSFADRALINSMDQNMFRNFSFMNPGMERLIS
Sequence of Ribosomal protein S6 kinase beta-1 (Homo sapiens) (P23443 whole entry, looked up): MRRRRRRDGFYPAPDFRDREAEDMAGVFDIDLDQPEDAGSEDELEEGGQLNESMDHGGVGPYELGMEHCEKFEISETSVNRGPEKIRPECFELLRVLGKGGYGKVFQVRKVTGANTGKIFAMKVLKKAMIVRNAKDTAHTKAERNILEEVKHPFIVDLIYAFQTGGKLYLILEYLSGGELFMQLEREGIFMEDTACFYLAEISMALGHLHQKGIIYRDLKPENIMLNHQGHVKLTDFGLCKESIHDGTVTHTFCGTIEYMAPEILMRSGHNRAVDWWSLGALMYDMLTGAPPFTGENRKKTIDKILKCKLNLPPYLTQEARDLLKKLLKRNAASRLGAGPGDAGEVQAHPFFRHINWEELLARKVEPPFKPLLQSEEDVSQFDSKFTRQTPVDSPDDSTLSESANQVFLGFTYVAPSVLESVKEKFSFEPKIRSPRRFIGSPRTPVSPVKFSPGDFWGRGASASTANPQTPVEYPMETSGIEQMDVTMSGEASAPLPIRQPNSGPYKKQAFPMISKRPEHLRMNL
Sequence of Aurora kinase A (Homo sapiens) (O14965 whole entry): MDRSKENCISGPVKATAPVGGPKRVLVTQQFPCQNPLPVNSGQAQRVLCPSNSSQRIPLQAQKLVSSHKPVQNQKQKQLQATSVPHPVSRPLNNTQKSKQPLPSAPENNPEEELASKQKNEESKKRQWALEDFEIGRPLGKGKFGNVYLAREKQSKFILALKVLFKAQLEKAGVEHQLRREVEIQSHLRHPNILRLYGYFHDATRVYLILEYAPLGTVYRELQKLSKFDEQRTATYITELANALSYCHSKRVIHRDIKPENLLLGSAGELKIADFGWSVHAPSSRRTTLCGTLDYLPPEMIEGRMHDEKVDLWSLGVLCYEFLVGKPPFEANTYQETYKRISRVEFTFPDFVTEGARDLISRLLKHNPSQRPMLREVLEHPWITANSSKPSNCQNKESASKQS
Sequence of Mast/stem cell growth factor receptor Kit (Homo sapiens), P10721 [L576P] (P10721 whole entry L576P): as the sequence (P10721 whole entry) above, with L576P counted along it

As to `CC1=C(C#N)[C@@H](c2ccc3[nH]nc(C)c3c2)C(C#N)=C(c2ccc(Cl)cc2)N1` [BAY-827], the residual activity in series [1] is 100%; in [2], 100%; in [3], 100%; in series [4] it was 100%; in series [5], 96.1%; in [6], 77.1%. Moreover, the residual activity is 93.6% in series [7]; 93.5% in series [8]; 100% in series [9]; 89.5% in series [10]; 100% in [11]; 71.2% in series [12]. Further, the residual activity was 100% in series [13]; 85.1% in [14]; 100% in series [15]; 99.8% in series [16]; 58.6% in [17]; 100% in [18]. The residual activity in series [19] is 96.7%; in series [20], 100%; in series [21], 71.8%; in series [22], 90.9%; in [23], 74.6%.

With `CC1=C(C#N)C(c2ccc3[nH]nc(C)c3c2)C(C#N)=C(C)N1` [BAY-474], the inhibition in [24] was -8%; in series [25], 21%; in [26], -7%; in series [27], 1%; in series [28], 11%; in [29] it was -4%. The inhibition in series [30] is -3%; in [31] it was 15%; in [32], 9%; in series [33] it was 6%; in [35], -2%; in series [36], 2%. Moreover, the inhibition in series [37] was 19%. Further, the inhibition at 3 h, 10 µM in series [34] is reported as -9% (not active).
